One assay has as its system Plasma. Nature of the assay: Induction of clotting in chicken plasma assessed as thrombin clotting time at 1.5 mM. Format: functional, Gallus gallus.
Another assay has as its system Blood. Nature of the assay: Induction of blood clotting in chicken serum free blood corpuscles assessed as blood clotting time at 1.5 mM by hayem-method. Type of assay: functional, Gallus gallus.
The nature of assay [1]: Induction of platelet aggregation in iv dosed Sprague-Dawley rat model of liver injury assessed as reduction in blood loss measured after 30 mins. Format: functional. The arrangement: scale not given: the % may be the effect or the level left. The settings on record: 0.5 h.

Residues, ends and D or L forms follow the SMILES beside them.

On to `CC(C)C[C@H](NC(=O)[C@H](Cc1cnc[nH]1)NC(=O)[C@H](Cc1cnc[nH]1)NC(=O)[C@H](CCC(N)=O)NC(=O)[C@@H](N)CCC(N)=O)C(=O)NCC(=O)NCC(=O)N[C@@H](C)C(=O)N[C@@H](CCCCN)C(=O)N[C@@H](CCC(N)=O)C(=O)N[C@@H](C)C(=O)NCC(=O)N[C@@H](CC(=O)O)C(=O)N[C@H](C(=O)O)C(C)C` (H-QQHHLGGAKQAGDV-OH), for which the Time with Plasma is given as 35 s; in the assay on Blood, 51 s. As for `CC(C)C[C@H](NC(=O)[C@@H](NC(=O)[C@@H](N)CCCNC(=N)N)[C@@H](C)O)C(=O)N[C@@H](C)C(=O)N[C@@H](Cc1ccccc1)C(=O)N[C@H](C(=O)N[C@@H](CCCNC(=N)N)C(=O)N1CCC[C@H]1C(=O)N[C@@H](CCCCN)C(=O)O)C(C)C` (H-RTLAFVRPK-OH), the Activity in assay [1] came to 60%.

These data come from ChEMBL document CHEMBL4811217, “Peptide-based topical agents and intravenous hemostat for rapid hemostasis” (2020).
